Measured values as given in PMC11374660, “The novel family of Warbicin® compounds inhibits glucose uptake both in yeast and human cells and restrains cancer cell proliferation” (Frontiers in Oncology, 2024).

Assays:
[1] = tested on: MCF10A breast epithelial cell line transformed with H-RAS^V12; experiment: Growth and apoptosis of MCF10A H-RAS^V12 cells (IncuCyte); format: cell-based, human; conditions: MCF10A H-RAS^V12, 1 mM glucose, 25 µM
Description: For both adherent A549 and MCF10A H-RAS^V12 cell lines, growth curves were established using the IncuCyte® ZOOM technology. By collecting phase contrast images, the IncuCyte® software provides a calculated confluency percentage from which growth curves can be deducted. The cell number/density was measured by calculating the confluency of phase objects (cells) sticking on the bottom of the well. Cells were seeded at a density of 1000 - 1500 cells/well in a Nunc-Edge™ 96-well plate (Thermo Fisher Scientific) and growth was typically measured over 3 to 5 days. For the measurement of apoptosis induction using the MCF10A H-RAS^V12 cell line, the IncuCyte® Caspase-3/7 green dye was added to the medium in the recommended concentration at the beginning of the growth curve experiment. Apoptosis was detected by taking fluorescent images by excitation at 488 nm followed by IncuCyte® software analysis. Cell growth of the KMS-12-PE multiple myeloma cell line, which grows in suspension, was measured by manual cell counting. Cells were initially seeded at a density of 10^4 cells/well and incubated for 4 days after which the cell number was counted. For all cell lines, the same medium used for pregrowth was also used for the growth curve experiment, albeit with different glucose concentrations depending on the experimental design. With compound administration, the final concentration of DMSO never exceeded 0.1%. Typically, at least four technical repeats were included per condition.

yeast tps1Δ strain = experiment: Growth (rescue) of the yeast tps1Δ strain on galactose with or without glucose; format: cell-based, S. cerevisiae
Description: (§1) Growth curves were made by measuring OD595 in a 96-well plate using the Multiskan™ FC Microplate Photometer (Thermo Fisher Scientific). Typically, for tps1Δ rescue experiments, cells were (pre)grown in Complete Synthetic medium containing 110 mM galactose. Compounds were always added 10 min prior to glucose addition to ensure maximal interaction between the cells and compounds. Cells originating from the preculture were harvested, washed in medium without sugar, after which they were resuspended to an OD of 0.1 in 200 µL of the appropriate medium. At least three technical replicates were included per condition. OD595 was measured at 30°C every 30 min with a 10-min shaking interval.

[2] = Solubility of compound stocks; format: physicochemical; conditions: 100% DMSO
Description: WBC-A and the complete structural analog library ( Supplementary Table 2 ) were purchased from different vendors, i.e. Enamine (n = 185), Life Chemicals (n = 10), LabNetwork (n = 4) and Uorsy (n = 4). WBC compounds in general are very insoluble in aqueous solutions, challenging their solubilization. Throughout this work, WBC compounds were always stock aliquoted at 50 mM concentration in 100% DMSO. In many cases, gentle sonication and heating up to 37°C was necessary to completely solubilize the compound stocks. Whereas WBC-A, -15C, -4C and -11C could be dissolved at 50 mM, some structural analogs remained in smooth or rough suspension, regardless of the concentration. Even though it is recommended to aliquot compound stocks, no significant decrease in compound strength by repeated freeze and thaw cycles in DMSO was observed.

wild type yeast cells = experiment: Growth of wild type yeast (general toxicity); format: cell-based, S. cerevisiae; conditions: 100 µM; 110 mM glucose medium and 325 mM glycerol + 430 mM ethanol medium
Description: as §1

[3] = tested on: hxk2Δ hxk1Δ GLK1 yeast cells; experiment: Sugar uptake in hxk2Δ hxk1Δ GLK1 yeast cells; format: cell-based, S. cerevisiae
Description: (§2) Zero-trans uptake of radioactively labeled [U-^14C]glucose, [U-^14C]fructose or [U-^14C]galactose by S. cerevisiae cells was determined in accordance with previous studies ([45], [75]). Cells were grown on different carbon sources depending on the experiment. For measuring glucose uptake activity in the tps1Δ and tps1Δ hxtΔ strains, cells were grown on YP medium containing 325 mM glycerol (measurement of 10 s). Typically, for compound characterization and kinetic studies in wild type and tps1Δ strains, cells were (pre)grown on Complete Synthetic medium supplemented with 110 mM galactose (measurement of 10 s). In the experiments on the influence of hexokinase activity on the sugar uptake rate, the measurement duration was shortened to 5 s and cells were always grown on YP medium containing 325 mM glycerol and 430 mM ethanol. After harvesting, cells were washed twice with ice-cold 25 mM MES-buffer pH 6, and resuspended in their respective medium without sugar to a final concentration of 45 mg (wet weight)/mL. The amount of added tracer was estimated to give a response close to at least 1000 counts per min in order to adequately counter background noise. Cells were first preincubated for 10 min at 30°C with the compound to acclimate the cells to the temperature and to allow adequate interaction with the compound prior to uptake. Next, hexose sugar was mixed with the cell suspension, which was then incubated at 30°C for 5 or 10 s, depending on the experiment, after which the cells were rapidly filtered over a glass microfiber filter (Whatman GF/C) and washed three times with ice-cold dH2O. The loaded filter was transferred to a scintillation vial containing 3 mL liquid scintillation cocktail (Ultima-Flo M, Perkin Elmer) and counted using the Hidex 300 SL. Three blank measurements per strain were typically included to account for background signal, for which the cells were first quenched before adding the radioactive label.

[4] = tested on: hxk2Δ hxk1Δ glk1Δ yeast cells; experiment: Glucose uptake in hxk2Δ hxk1Δ glk1Δ yeast cells; format: cell-based, S. cerevisiae; conditions: strain lacking glucose phosphorylation
Description: as §2, with “Cells were first preincubated for 10 min at 30°C with the compound to acclimate the cells to the temperature and to allow adequate interaction with the compound prior to uptake. Next, hexose sugar was mixed with the cell suspension, which was then incubated at 30°C for 5 or 10 s, depending on the experiment, after which the cells were rapidly filtered over a glass microfiber filter (Whatman GF/C) and washed three times with ice-cold dH2O.” left out, “Three blank measurements per strain were typically included to account for background signal, for which the cells were first quenched before adding the radioactive label.” left out

[5] = tested on: HXK2 hxk1Δ glk1Δ yeast cells; experiment: Sugar uptake in HXK2 hxk1Δ glk1Δ yeast cells; format: cell-based, S. cerevisiae
Description: as §2, with “Cells were first preincubated for 10 min at 30°C with the compound to acclimate the cells to the temperature and to allow adequate interaction with the compound prior to uptake. Next, hexose sugar was mixed with the cell suspension, which was then incubated at 30°C for 5 or 10 s, depending on the experiment, after which the cells were rapidly filtered over a glass microfiber filter (Whatman GF/C) and washed three times with ice-cold dH2O.” left out, “Three blank measurements per strain were typically included to account for background signal, for which the cells were first quenched before adding the radioactive label.” left out

[6] = 250 µM CCCP or 50 µM WBC-A 10 min prior, 100 mM maltose with the tracer
[7] = Saccharomyces cerevisiae, read-out: inhibition of fructose transport

| SMILES | induction of apoptosis (caspase 3/7 dye) [1] | inhibition of proliferation [1] | Rescue of the tps1∆ strain on 2.5 mM glucose at 100 µM (yeast tps1Δ strain) | Minimal rescue concentration for growth of tps1∆ cells on 2.5 mM glucose (yeast tps1Δ strain) [µM] | concentration at which compound could be dissolved [2] [µM] | rescue of growth on galactose in the presence of 5 mM glucose (yeast tps1Δ strain; 100 μM) | restoration of growth in the presence of 7.5 mM glucose (yeast tps1Δ strain; 100 μM) | growth inhibition of wild type yeast (wild type yeast cells) | fructose uptake at tracer concentration [3, 6] | glucose uptake at tracer concentration [3, 6] | inhibition at 50 µM [3, 7] [%] | 1 mM glucose uptake rate [4] | inhibition at 50 µM [5, 7] [%] | 1 mM glucose uptake rate ([5]; strain expressing Hxk2) |
| --- | --- | --- | --- | --- | --- | --- | --- | --- | --- | --- | --- | --- | --- | --- |
| Cc1nc(SCC(=O)c2ccc3c(c2)NC(=O)CO3)c2c(-c3cccs3)csc2n1 [WBC-11C] | strong induction of apoptosis | highest potency | Yes | 50 | ≥ 50000 | – | – | – | – | – | – | – | – | – |
| Cc1nc(Sc2nnc3n2CCCCC3)c2c(-c3cccs3)csc2n1 [WBC-A] | – | – | Yes | 25 | ≥ 50000 | rescued growth | not able to restore growth | did not cause any growth inhibition at all | little inhibition of fructose uptake | strong inhibition of glucose uptake | ~30 | little further inhibition | > 75 | strong decrease in glucose uptake rate |
